Reference: PMC13576449, “Small-Molecule Activators of PRMT1: Discovery, SAR Analyses, and Proapoptotic Effects in Pancreatic Cancer Cells” (Journal of Medicinal Chemistry, 2026)

What was measured:
FLAG-tagged PRMT4 = target: T1, FLAG-tagged PRMT4 (Mus musculus, UniProt Q9WVG6); test: Fluorescence-based in vitro PRMT assay (F-PRMT assay), PRMT4; type: biochemical; settings: for Experimental result (PRMT4): vs solvent control = 100%
T1 construct: Full-length FLAG-tagged PRMT protein; made in house; host or cells: Sf9 insect cells (baculovirus)
T1 sequence (Q9WVG6 1-608): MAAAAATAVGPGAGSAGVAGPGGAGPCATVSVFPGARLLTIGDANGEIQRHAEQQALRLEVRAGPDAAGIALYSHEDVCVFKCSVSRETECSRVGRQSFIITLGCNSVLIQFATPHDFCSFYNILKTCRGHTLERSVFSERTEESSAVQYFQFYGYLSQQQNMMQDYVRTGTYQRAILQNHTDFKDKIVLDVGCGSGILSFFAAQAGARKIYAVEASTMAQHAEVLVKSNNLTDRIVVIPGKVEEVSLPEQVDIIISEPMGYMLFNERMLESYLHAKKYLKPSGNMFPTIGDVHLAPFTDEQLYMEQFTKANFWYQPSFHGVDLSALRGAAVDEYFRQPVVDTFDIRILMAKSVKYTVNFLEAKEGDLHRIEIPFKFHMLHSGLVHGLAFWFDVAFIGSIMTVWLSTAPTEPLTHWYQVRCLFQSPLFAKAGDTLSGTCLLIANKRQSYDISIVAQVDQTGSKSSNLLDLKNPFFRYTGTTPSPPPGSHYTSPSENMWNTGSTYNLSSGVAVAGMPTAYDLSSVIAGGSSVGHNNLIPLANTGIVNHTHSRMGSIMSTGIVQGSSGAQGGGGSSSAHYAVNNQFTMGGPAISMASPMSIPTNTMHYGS
How it was run: (§1)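 Baculovirus/Sf9-expressed FLAG-PRMTs (human PRMT3, PRMT6; mouse PRMT4), anti-FLAG purified and used bead-bound, methylated Bz-Arg-AMC with SAM for 2 h at 37 °C, 1,000 rpm. Technical triplicates; no-SAM negative controls.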

FLAG-tagged PRMT6 = target: T2, FLAG-tagged PRMT6 (Homo sapiens, UniProt Q96LA8); test: Fluorescence-based in vitro PRMT assay (F-PRMT assay), PRMT6; type: biochemical; settings: for Experimental result (PRMT6): vs solvent control = 100%
T2 construct: The complete ORFs of human PRMT3 and PRMT6 were inserted; made in house; host or cells: Sf9 insect cells (baculovirus)
T2 sequence (Q96LA8 whole entry): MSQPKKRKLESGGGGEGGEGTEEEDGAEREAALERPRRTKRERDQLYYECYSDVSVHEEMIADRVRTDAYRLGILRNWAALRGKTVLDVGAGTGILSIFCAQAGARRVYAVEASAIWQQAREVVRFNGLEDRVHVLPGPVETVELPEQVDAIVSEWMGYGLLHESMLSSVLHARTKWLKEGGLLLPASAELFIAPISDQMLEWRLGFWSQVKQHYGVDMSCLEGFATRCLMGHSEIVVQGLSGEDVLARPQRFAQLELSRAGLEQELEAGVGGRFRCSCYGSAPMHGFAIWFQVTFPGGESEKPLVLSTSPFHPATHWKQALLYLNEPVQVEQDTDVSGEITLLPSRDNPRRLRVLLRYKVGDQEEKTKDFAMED
How it was run: as §1

PANC-1 xenografts = test: PDAC xenograft mouse model, tumor growth; type: in vivo; settings: female athymic nude mice, intraperitoneal, 2 weeks; 150 mg/kg TR-07 daily, 10 mg/kg gemcitabine every second day; n = 5
[1] = Table 1, 100 μM compound, 2 μM PRMT, n = 3, racemates used

CN(C)Cc1cccc(CN/C=C2\C(=O)NC(=O)c3ccccc32)c1.Cl [TR-07, (Z)-1-[3-({[(1,3-Dioxo-2,3-dihydroisoquinolin-4(1H)-lidene)methyl]amino}methyl)phenyl]-N,N-dimethylmethanaminium chloride] was tested, and the “effect on PRMT4 activity (in words)” value (FLAG-tagged PRMT4; 100 μM compound) was “neither positively nor negatively influencing”, the “Experimental result (PRMT4)” value (FLAG-tagged PRMT4; [1]) was “PRMT4 n.e. (Compounds, which did not significantly affect the catalytic activity (less than ±6% change or not significant p-value), are marked with [drawing 8] (no effect))” and the “Experimental result (PRMT4)” value (FLAG-tagged PRMT4; Table S3, 100 µM compound, n≥3) was “n.e. (did not significantly affect the catalytic activity (less than ±6% change or not significant p-value), are marked with n.e. (no effect))”. For the same compound, the “effect on PRMT6 activity (in words)” value (FLAG-tagged PRMT6; 100 μM compound) was “neither positively nor negatively influencing”, the “Experimental result (PRMT6)” value (FLAG-tagged PRMT6; [1]) was “PRMT6 n.e. (Compounds, which did not significantly affect the catalytic activity (less than ±6% change or not significant p-value), are marked with [drawing 8] (no effect))” and the “Experimental result (PRMT6)” value (FLAG-tagged PRMT6; Table S3, 100 µM compound, n≥3) was “n.e. (did not significantly affect the catalytic activity (less than ±6% change or not significant p-value), are marked with n.e. (no effect))”. The “tumor growth of PANC-1 xenografts” value (PANC-1 xenografts) was “significantly reduced the tumor growth compared to the control mice”.
